The subject of assay [1] is cardiac myocytes. In words: Peptide protection against hypoxia-acidosis death (DNA fragmentation analyses). In kind it is cell-based, rat. Conditions: peptide 10 PM (20 μg/ml); for protection against hypoxia-acidosis death: 24-48 h hypoxia with acid accumulation; for protection (quantitative DNA fragmentation analyses): n=3. As for the experimental part: (§1) Quantitative Analysis of Apoptosis. Cells were examined for morphologic evidence of apoptosis or necrosis by staining with anti-myosin antibody and the fluorescent DNA-binding dyes Hoechst 33342 and propidium iodide (PI), exactly as previously described (26;30). Genomic DNA fragmentation analyses were also as described previously (26;30).
Peptides were added to cardiac myocyte cultures at a concentration of 10 PM (20 μg/ml) in serum-free defined medium (DMEM/high glucose/TIB) as described previously (26). Control cultures contained 20 μg/ml BSA. Cultures were exposed to 24-48 h of hypoxia with acid accumulation, also as described previously (26). The results using peptide 1 (23 aa N-BNIP3) are shown in FIG. 7 (−is control +is with peptide treatment).

The subject of assay [2] is cardiac myocytes. As to the kind of experiment: DNA fragmentation in cardiac myocytes subjected to hypoxia-acidosis. In kind it is cell-based, rat. The following applies: for Fragmentation of cardiac myocyte DNA by hypoxia-acidosis with MPTP inhibitor: 48 h time point, DUB 200 μM; for protection against DNA fragmentation with MPTP inhibitor: after 72 h hypoxia-acidosis. The protocol:
Cardiac Myocyte Culture and Hypoxia. Methods utilized for the isolation and culture of primary neonatal rat cardiac myocytes and exposure to hypoxia have been described previously (28;29). Experiments were performed in defined serum-free DMEM/M-199 (4:1) medium. Oxygen was continuously monitored and maintained at <10 mm Hg.
as §1
Antisense. Antisense oligonucleotides were complementary to bases 10-40 and 600-630 of the BNIP3 gene; sequences 5′[…] (SEQ ID NO:1) and 5′[…] (SEQ ID NO:2) respectively. Random sequence oligonucleotides contained the same bases in a scrambled sequence. FITC-tagged oligonucleotides (2 μM final of each) in DMEM were mixed with lipofectamine (0.1 μg/ml, final concentration) and incubated with cardiac myocytes at 37° C. for 8 hours before treatments. Immediately before exposing to hypoxia, fresh medium with oligonucleotides was added. Fluorescence was visualized after 24, 36, and 48 hrs of exposure to hypoxia. Fresh oligonucleotides (400 nM) were added at 24 and 36 hrs.

Here are results for 4 compounds from US20040152650A1, “Preventing ischemia-induced cell damage” (priority 2002, published 2004).

With “GRKKRRQRRRPPQC-----MSQSGEENLQGSWVELHFSNGNG-(C-term) (GRKKRRQRRRPPQCMSQSGEENLQGSWVELHFSNGNG; Synthetic Peptide Fragments) [Peptide 1, TAT-peptide containing N-terminal amino acids 1-23 of BNIP3]”, in the assay on cardiac myocytes [1], the “protection against hypoxia-acidosis death” value was “strong and significant protection”. For the same compound, the “protection (quantitative DNA fragmentation analyses)” value with cardiac myocytes [1] (24 h hypoxia with acid accumulation) and in the assay on cardiac myocytes [1] (48 h hypoxia with acid accumulation) was over 50% in each case.

For the compound `CO[C@H](C/C=C\C=C\CC/C=C/C[C@H](C)/C=C/C(=C\C(=O)O)CC(=O)O)/C(C)=C\C=C(/C)C(=O)O` [BA, bongrekic acid], in the assay with cardiac myocytes [2], the “Fragmentation of cardiac myocyte DNA by hypoxia-acidosis with MPTP inhibitor” value is listed as “blocked” and the “protection against DNA fragmentation with MPTP inhibitor” value is “mediated protection”.

For `CCCCCCCCCCC1=C(C)C(=O)C(OC)=C(OC)C1=O` [DUB, decylubiquinone], in the assay with cardiac myocytes [2], the “Fragmentation of cardiac myocyte DNA by hypoxia-acidosis with MPTP inhibitor” value is reported as “blocked” and the “protection against DNA fragmentation with MPTP inhibitor” value was “mediated protection”.

For the compound “GRKKRRQRRRPPQC----GDMEKILLDAQHESGRSSKSSHCDSP-(C-term) (GRKKRRQRRRPPQCGDMEKILLDAQHESGRSSKSSHCDSP; Synthetic Peptide Fragments) [Peptide 2, TAT-peptide containing N-terminal amino acids 24-49 of BNIP3]”, the “protection against hypoxia-acidosis death” value with cardiac myocytes [1] is recorded as “less effective”.
